From patent publication US8354414B2, “Substituted bicyclic pyrimidines” (Cephalon, Inc, priority 2006, dated 2013)

Key:
His6-GSK-3β = target: T1, His6-GSK-3β (Homo sapiens, UniProt P49841); assay: Inhibition of His6-GSK-3β kinase activity (ELISA-based format, time-resolved fluorescence readout); type: biochemical; conditions: class symbols; read-out: GSK3β IC50
T1 construct: made in house; host or cells: Sf21 insect cells (baculovirus)
How it was run: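 N-terminal His6-tagged full-length human GSK-3β (aa 2-419) expressed in Sf21 cells, 200 ng/ml, phosphorylating plate-coated GST-Rb with 20 μM ATP in pH 7.2 HEPES buffer, 30 min at 37° C. Phospho-Rb (Ser-780) detected by antibody plus Eu-labelled secondary, time-resolved fluorescence; IC50 from curves.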

CDK5/GST-p25 = target: T2, CDK5/GST-p25 (Homo sapiens, UniProt Q00535); assay: Inhibition of CDK5/GST-p25 kinase activity (ELISA with time-resolved fluorescence readout); type: biochemical
T2 construct: The final construct, encoding for full-length human CDK5; made in house; host or cells: Sf21 insect cells (baculovirus co-infection)
How it was run: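 Sf21-coexpressed full-length human CDK5 with GST-p25 (p35 aa 108-307), glutathione-purified, at 2 ng/ml was reacted for 20 min at 37 °C on plate-coated GST-Rb(773-928). Buffer was 20 mM HEPES pH 7.2, 10 µM ATP, 10 mM MgCl2 and 2.5% DMSO. Phospho-Rb Ser-780 was detected by Eu-labelled antibody TRF, and IC50 curves were fitted.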

T1 sequence (P49841 2-419): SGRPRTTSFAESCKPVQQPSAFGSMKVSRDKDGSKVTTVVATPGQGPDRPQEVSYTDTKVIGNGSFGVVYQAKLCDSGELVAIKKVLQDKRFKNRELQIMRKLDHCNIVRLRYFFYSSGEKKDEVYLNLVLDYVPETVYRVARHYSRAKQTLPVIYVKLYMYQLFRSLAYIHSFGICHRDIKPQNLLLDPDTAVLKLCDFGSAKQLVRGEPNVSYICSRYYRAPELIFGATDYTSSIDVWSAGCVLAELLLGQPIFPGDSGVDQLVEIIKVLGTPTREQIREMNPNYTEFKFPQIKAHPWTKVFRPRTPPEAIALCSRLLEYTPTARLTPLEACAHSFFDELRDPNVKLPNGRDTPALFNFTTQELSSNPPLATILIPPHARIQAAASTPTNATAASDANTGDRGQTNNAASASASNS
T2 sequence (Q00535 whole entry): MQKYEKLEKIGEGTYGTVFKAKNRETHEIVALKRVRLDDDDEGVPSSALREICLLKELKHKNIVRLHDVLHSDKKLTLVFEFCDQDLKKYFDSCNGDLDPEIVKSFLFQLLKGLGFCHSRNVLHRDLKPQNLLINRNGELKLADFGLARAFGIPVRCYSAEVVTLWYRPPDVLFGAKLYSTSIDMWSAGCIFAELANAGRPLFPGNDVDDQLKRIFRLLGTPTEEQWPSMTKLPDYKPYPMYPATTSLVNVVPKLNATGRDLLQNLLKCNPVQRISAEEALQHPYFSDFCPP
T2 sequence (Q15078 108-307 partner limits assumed): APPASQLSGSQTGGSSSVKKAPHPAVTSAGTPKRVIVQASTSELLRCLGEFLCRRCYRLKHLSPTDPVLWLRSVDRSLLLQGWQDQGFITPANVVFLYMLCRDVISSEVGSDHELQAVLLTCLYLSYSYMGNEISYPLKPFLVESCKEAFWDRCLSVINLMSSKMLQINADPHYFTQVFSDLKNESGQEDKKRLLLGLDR

IC50 (His6-GSK-3β) [nM] | melting point | IC50 (CDK5/GST-p25; class symbols) [nM] | IC50 (CDK5/GST-p25; numeric bounds) [nM] | inhibition at 10 µM (CDK5/GST-p25) [%] | Compound
< 300 | 264 to 265.5 °C | 300 to 3000 | – | – | CC(C)Cn1cc2c(C3C(=O)Nc4ccc(Cl)cc43)nc(NCCN(C)C)nc2n1 (stereo not drawn) [Example 270, 5-Chloro-3-[6-(2-dimethylamino-ethylamino)-2-isobutyl-2H-pyrazolo[3,4-d]pyrimidin-4-yl]-1,3-dihydro-indol-2-one]
< 300 | > 300 °C | 300 to 3000 | – | – | CC(=O)NCCNc1nc(C2C(=O)Nc3ccc(C(F)(F)F)cc32)c2cn(C3CCCC3)nc2n1 (stereo not drawn) [Example 163, 3-(2-cyclopentyl-6-(2-acetylamino-ethylamino)-2H-pyrazolo [3,4-d]pyrimidin-4-yl)-5-trifluoromethyl-1,3-dihydro-indol-2-one]
< 300 | > 300 °C | < 300 | – | – | COCCNc1nc(C2C(=O)Nc3ccc(Br)cc32)c2cn(CCOC)nc2n1 (stereo not drawn) [Example 235, 5-Bromo-3-[2-(2-methoxy-ethyl)-6-(2-methoxy-ethylamino)-2H-pyrazolo [3,4-d]pyrimidin-4-yl]-1,3-dihydro-indol-2-one]
300 to 3000 | 335 to 338 °C | > 10000 | – | – | N#Cc1ccc2c(c1)NC(=O)C2c1ncnc2c1cnn2C1CCCC1 (stereo not drawn) [Example 63, 3-(1-Cyclopentyl-1H-pyrazolo [3,4-d]pyrimidin-4-yl)-2-oxo-2,3-dihydro-1H-indole-6-carbonitrile]
300 to 3000 | 260 to 262 °C | < 300 | – | – | Cn1cc2c(C3C(=O)Nc4ccc(Br)cc43)nc(NCCN)nc2n1 (stereo not drawn) [Example 303, 3-[6-(2-Amino-ethylamino)-2-methyl-2H-pyrazolo [3,4-d]pyrimidin-4-yl]-5-bromo-1,3-dihydro-indol-2-one]
> 10000 | > 300 °C (dec.) | > 10000 | – | – | Cn1nc([N+](=O)[O-])c2c(C3C(=O)Nc4ccc(C#N)cc43)ncnc21 (stereo not drawn) [Example 148, 3-(1-Methyl-3-nitro-1H-pyrazolo[3,4-d]pyrimidin-4-yl)-2-oxo-2,3-dihydro-1H-indole-5-carbonitrile]
300 to 3000 | > 350 °C | < 300 | – | – | Cn1cc2c(C3C(=O)Nc4ccc(C#N)cc43)ncnc2n1 (stereo not drawn) [Example 84, 3-(2-Methyl-2H-pyrazolo [3,4-d]pyrimidin-4-yl)-2-oxo-2,3-dihydro-1H-indole-5-carbonitrile]
< 300 | 288 to 291 °C | – | > 1000 | – | O=C1Nc2ccc(C(F)(F)F)cc2C1c1nc(NCCCN2CCOCC2)nc2nn(C3CCCC3)cc12 (stereo not drawn) [Example 162, 3-[2-cyclopentyl-6-(3-morpholin-4-yl-propylamino)-2H-pyrazolo [3,4-d]pyrimidin-4-yl]-5-trifluoromethyl-1,3-dihydro-indol-2-one]
< 300 | 199 °C (dec.) | < 300 | – | – | CCCCCn1cc2c(C3C(=O)Nc4ccc(C#N)cc43)nc(NC(C)C)nc2n1 (stereo not drawn) [Example 295, 3-(6-Isopropylamino-2-pentyl-2H-pyrazolo[3,4-d]pyrimidin-4-yl)-2-oxo-2,3-dihydro-1H-indole-5-carbonitrile]
300 to 3000 | 238 to 240 °C | – | > 3000 | – | CC(=O)NCCNc1nc(C2C(=O)Nc3ccccc32)c2cn(C3CCCC3)nc2n1 (stereo not drawn) [Example 158, 3-(2-cyclopentyl-6-(2-acetylamino-ethylamino)-2H-pyrazolo[3,4-d]pyrimidin-4-yl)-1,3-dihydro-indol-2-one]
< 300 | 294 to 296.8 °C | < 300 | – | – | COCCNc1nc(C2C(=O)Nc3ccc(Br)cc32)c2cn(CC(C)C)nc2n1 (stereo not drawn) [Example 263, 5-Bromo-3-[2-isobutyl-6-(2-methoxy-ethylamino)-2H-pyrazolo[3,4-d]pyrimidin-4-yl]-1,3-dihydro-indol-2-one]
< 300 | 322 to 326 °C | < 300 | – | – | CCCn1cc2c(C3C(=O)Nc4ccc(Br)cc43)nc(NC[C@H](C)O)nc2n1 (stereo partly drawn) [Example 194, 5-Bromo-3-[6-((S)-2-hydroxy-propylamino)-2-propyl-2H-pyrazolo[3,4-d]pyrimidin-4-yl]-1,3-dihydro-indol-2-one]
> 10000 | 340 to 344 °C | > 10000 | – | – | N#Cc1ccc2c(c1)NC(=O)C2c1ncnc2nn(C3CCCC3)cc12 (stereo not drawn) [Example 38, 3-(2-Cyclopentyl-2H-pyrazolo [3,4-d]pyrimidin-4-yl)-2-oxo-2,3-dihydro-1H-indole-6-carbonitrile]
> 10000 | 293 to 297 °C | – | > 3000 | – | CCCn1ncc2c(C3C(=O)Nc4ccc(Cl)cc43)ncnc21 (stereo not drawn) [Example 95, 5-Chloro-3-(1-propyl-2H-pyrazolo[3,4-d]pyrimidin-4-yl)-1,3-dihydro-indol-2-one]
< 300 | 248.5 to 249 °C | – | > 3000 | – | COCCN(CCOC)c1nc(C2C(=O)Nc3ccc(C#N)cc32)c2cn(C3CCCC3)nc2n1 (stereo not drawn) [Example 167, 3-{6-[bis-(2-methoxyethyl)amino]-2-cyclopentyl-2H-pyrazolo[3,4-d]pyrimidin-4-yl}-2-oxo-2,3-dihydro-1H-indole-5-carbonitrile]
< 300 | 301 to 304 °C | < 300 | – | – | O=C1Nc2ccc([N+](=O)[O-])cc2C1c1ncnc2nn(C3CCCCC3)cc12 (stereo not drawn) [Example 49, 3-(2-Cyclohexyl-2H-pyrazolo[3,4-d]pyrimidin-4-yl)-5-nitro-1,3-dihydroindol-2-one]
< 300 | 216 to 218 °C | < 300 | – | – | O=C1Nc2ccccc2C1c1nc(NCc2cccnc2)nc2nn(C3CCCC3)cc12 (stereo not drawn) [Example 156, 3-{2-cyclopentyl-6-[(pyridin-3-ylmethyl)-amino]-2H-pyrazolo [3,4-d]pyrimidin-4-yl}-1,3-dihydro-indol-2-one]
300 to 3000 | > 300 °C (dec.) | > 10000 | – | – | O=C1Nc2ccc([N+](=O)[O-])cc2C1c1ncnc2c1cnn2C1CCCC1 (stereo not drawn) [Example 57, 3-(1-Cyclopentyl-1H-pyrazolo[3,4-d]pyrimidin-4-yl)-5-nitro-1,3-dihydro-indol-2-one]
< 300 | > 300 °C | – | – | 77 | C[C@H](O)CNc1nc(C2C(=O)Nc3ccc(Br)cc32)c2cn(C3CCCC3)nc2n1 (stereo partly drawn) [Example 372]
< 300 | 263 to 265.5 °C | < 300 | – | – | CC(C)Cn1cc2c(C3C(=O)Nc4ccc(Cl)cc43)nc(NCCCN3CCOCC3)nc2n1 (stereo not drawn) [Example 271, 5-Chloro-3-[2-isobutyl-6-(3-morpholin-4-yl-propylamino)-2H-pyrazolo[3,4-d]pyrimidin-4-yl]-1,3-dihydro-indol-2-one]
< 300 | 282 to 286 °C | > 10000 | – | – | CC(C)CNc1nc(C2C(=O)Nc3ccc(Cl)cc32)c2cn(C3CCCC3)nc2n1 (stereo not drawn) [Example 280, 5-Chloro-3-(2-cyclopentyl-6-isobutylamino-2H-pyrazolo[3,4-d]pyrimidin-4-yl)-1,3-dihydro-indol-2-one]
< 300 | > 300 °C | < 300 | – | – | COCCn1cc2c(C3C(=O)Nc4ccc(Br)cc43)nc(NCCN3CCOCC3)nc2n1 (stereo not drawn) [Example 234, 5-Bromo-3-[2-(2-methoxy-ethyl)-6-(2-morpholin-4-yl-ethylamino)-2H-pyrazolo[3,4-d]pyrimidin-4-yl]-1,3-dihydro-indol-2-one]
